# From publication PMC6886798, “Expression of myeloid Src-family kinases is associated with poor prognosis in AML and influences Flt3-ITD kinase inhibitor acquired resistance” (PLoS ONE, 2019)
# Like-named read-outs stand apart in the source and are kept apart here.
# What was measured:
# [1] = target: T1, Hck T338L (Homo sapiens, UniProt P08631, T333L); test: Z'-LYTE in vitro kinase assay; assay type: biochemical
# T1 construct: Recombinant near-full-length kinases, consisting of the SH2, SH3 and kinase domains plus the negative regulatory tail; made in house; host or cells: E. coli BL21Star (DE3), co-expressed with Csk and PTP1B
# [2] = target: T2, Lyn T338L (Homo sapiens, UniProt P07948, T319L); test: Z'-LYTE in vitro kinase assay; assay type: biochemical; settings: read-out: A-419259 IC50, Fig 5B, ATP at Km, mean ± SE, three independent determinations
# T2 construct: Recombinant near-full-length kinases, consisting of the SH2, SH3 and kinase domains plus the negative regulatory tail; made in house; host or cells: E. coli BL21Star (DE3), co-expressed with Csk and PTP1B
# [3] = target: T3, Lyn T338F (Homo sapiens, UniProt P07948, T319F); test: Z'-LYTE in vitro kinase assay; assay type: biochemical; settings: read-out: A-419259 IC50, Fig 5B, ATP at Km, mean ± SE, three independent determinations
# T3 construct: Recombinant near-full-length kinases, consisting of the SH2, SH3 and kinase domains plus the negative regulatory tail; made in house; host or cells: E. coli BL21Star (DE3), co-expressed with Csk and PTP1B
# [4] = target: T4, Flt3-D835Y kinase domain (Homo sapiens, UniProt P36888, D835Y); test: Z'-LYTE in vitro kinase assay; assay type: biochemical; settings: Flt3 D835Y mutant
# T4 construct: Recombinant purified Flt3 wild-type, Flt3-ITD and Flt3-D835Y kinase domains were purchased from ThermoFisher; purchased ThermoFisher
# Experimental: Assays were performed in quadruplicate in 384-well low volume, non-binding, black polystyrene microplates (Corning) according to the manufacturer’s instructions. Briefly, this assay measures phosphorylation of the Tyr2 peptide substrate which is tagged with coumarin and fluorescein on its N- and C-termini, respectively, to form a FRET pair. After the kinase reaction, a development step involves site-specific proteolytic cleavage of the unphosphorylated but not the phosphorylated peptide. […] Kinase reactions were run in 50 mM HEPES, pH 7.5, 10 mM MgCl2, 1 mM EGTA, and 0.01% BRIJ-35 (buffer supplied by the manufacturer). […] Following incubation for 1 h at ambient temperature, reactions were quenched by addition of the development protease, and coumarin and fluorescein fluorescence were measured 1 h later on a Molecular Devices SpectraMax M5 plate reader. […] For experiments with inhibitors, compounds were preincubated with kinase for 30 min prior to initiation of the reaction by the addition of ATP.
# [5] = tested on: parental TF-1 cells (GM-CSF); test: CellTiter-Blue cell viability; assay type: cell-based, human; settings: at 3.0 μM; 72 hours; in the presence of GM-CSF
# Experimental: TF-1 and MV4-11 cells were obtained from the American Type Culture Collection (ATCC) and cultured in RPMI 1640 medium supplemented with 10% fetal bovine serum (FBS), 100 units/ml of penicillin, 100 μg/ml of streptomycin sulfate, and 0.25 μg/ml of amphotericin B (Antibiotic-Antimycotic; Gibco/ThermoFisher). Parental TF-1 cells also require recombinant human GM-CSF (1 ng/mL; ThermoFisher). MOLM13 and MOLM14 cells were obtained from Leibniz Institute Deutsche Sammlung von Mikroorganismen (DSMZ) and grown in RPMI 1640 medium containing 20% FBS and Antibiotic-Antimycotic. Human 293T cells were obtained from ATCC and cultured in Dulbecco's modified Eagle's medium (DMEM) containing 10% FBS and Antibiotic-Antimycotic.
# (§1) Cells were seeded at 10^5 per mL in the presence or absence of inhibitors with DMSO as carrier solvent (0.1% final). Cell viability was assessed using the CellTiter-Blue reagent according to the manufacturer’s instructions (Promega). Fluorescence intensity, which correlates directly with viable cell number, was measured using a SpectraMax M5 microplate reader. Each experiment included three technical replicates per condition, and each experiment was repeated at least three times.
# [6] = tested on: TF-1/Flt3-ITD + Fgr cells; test: CellTiter-Blue cell viability; assay type: cell-based, human; settings: Fig 3; Flt3-ITD: WT; SFK: Fgr; 72 hours; read-out: IC50, nM (growth inhibition)
# Experimental: Full-length cDNA clones of each kinase were subcloned into the retroviral expression vectors pMSCV-neo or pMSCV-puro (Clontech). High-titer retroviral stocks were produced in 293T cells co-transfected with each pMSCV construct and an amphotropic packaging vector. TF-1 cells (10^6) were resuspended in 5.0 mL of undiluted viral supernatant and centrifuged at 1,000 × g for 4 h at 18 °C in the presence of 4 μg/mL Polybrene (Sigma-Aldrich) to enhance viral transduction. Forty-eight hours after infection, the cells began a two-week selection period with 400 μg/ml G-418 (neo vectors) or 3 μg/mL puromycin (puro vectors). Following selection, cells were maintained with 200 μg/ml G418 or 1 μg/mL puromycin. For double transduction experiments, TF-1 cells were first infected with the pMSCV-neo-Flt3-ITD virus, selected with G418, followed by the pMSCV-puro virus carrying Hck or Fgr and puromycin selection. All TF-1 cell populations that expressed Flt3-ITD (including inhibitor-resistant mutants) proliferated in a GM-CSF-independent manner, and were therefore subcultured in the absence of GM-CSF.
# as §1
# [7] = tested on: MOLM13 R3 (A-419259-resistant population); test: CellTiter-Blue cell viability; assay type: cell-based, human
# Experimental: as §1, with “Cell” for “Cells were seeded at 10^5 per mL in the presence or absence of inhibitors with DMSO as carrier solvent (0.1% final). Cell”, “times. […] Viability of each cell population was measured three times per week using the CellTiter-Blue assay.” for “times.”
# [8] = tested on: MOLM14 R1 (A-419259-resistant population); test: CellTiter-Blue cell viability; assay type: cell-based, human
# Experimental: as §1, with “Cell” for “Cells were seeded at 10^5 per mL in the presence or absence of inhibitors with DMSO as carrier solvent (0.1% final). Cell”, “times. […] Viability of each cell population was measured three times per week using the CellTiter-Blue assay.” for “times.”
# [9] = tested on: MOLM14 R2 (A-419259-resistant population); test: CellTiter-Blue cell viability; assay type: cell-based, human
# Experimental: as §1, with “Cell” for “Cells were seeded at 10^5 per mL in the presence or absence of inhibitors with DMSO as carrier solvent (0.1% final). Cell”, “times. […] Viability of each cell population was measured three times per week using the CellTiter-Blue assay.” for “times.”
# [10] = tested on: MOLM14 R3 (A-419259-resistant population); test: CellTiter-Blue cell viability; assay type: cell-based, human
# Experimental: as §1, with “Cell” for “Cells were seeded at 10^5 per mL in the presence or absence of inhibitors with DMSO as carrier solvent (0.1% final). Cell”, “times. […] Viability of each cell population was measured three times per week using the CellTiter-Blue assay.” for “times.”
# [11] = tested on: MV4-11 R2 (A-419259-resistant population); test: CellTiter-Blue cell viability; assay type: cell-based, human
# Experimental: as §1, with “Cell” for “Cells were seeded at 10^5 per mL in the presence or absence of inhibitors with DMSO as carrier solvent (0.1% final). Cell”, “times. […] Viability of each cell population was measured three times per week using the CellTiter-Blue assay.” for “times.”
# [12] = tested on: MV4-11 R3 (A-419259-resistant population); test: CellTiter-Blue cell viability; assay type: cell-based, human
# Experimental: as §1, with “Cell” for “Cells were seeded at 10^5 per mL in the presence or absence of inhibitors with DMSO as carrier solvent (0.1% final). Cell”, “times. […] Viability of each cell population was measured three times per week using the CellTiter-Blue assay.” for “times.”
# [13] = target: 468 kinases; test: KINOMEscan scanMAX profile, overall selectivity; assay type: binding, human; settings: 1 μM; 468 kinase targets
# [14] = target: T5, FLT3 (Homo sapiens, UniProt P36888); test: KINOMEscan; assay type: binding; settings: 1.0 µM
# T5 construct: purchased Eurofins/DiscoverX KINOMEscan scanMAX
# Experimental: (§2) Kinase retention to the immobilized ligand is then measured using quantitative real-time PCR for each kinase-specific DNA barcode.
# [15] = target: T6, MAP3K2 (Homo sapiens, UniProt Q9Y2U5); test: KINOMEscan; assay type: binding; settings: 1.0 µM
# T6 construct: purchased Eurofins/DiscoverX KINOMEscan scanMAX
# Experimental: as §2
# [16] = target: T7, PAK7 (Homo sapiens, UniProt Q9P286); test: KINOMEscan; assay type: binding; settings: 1.0 µM
# T7 construct: purchased Eurofins/DiscoverX KINOMEscan scanMAX
# Experimental: as §2
# [17] = target: T8, SIK (Homo sapiens, UniProt P57059); test: KINOMEscan; assay type: binding; settings: 1.0 µM
# T8 construct: purchased Eurofins/DiscoverX KINOMEscan scanMAX
# Experimental: as §2
# [18] = target: T9, WNK4 (Homo sapiens, UniProt Q96J92); test: KINOMEscan; assay type: binding; settings: 1.0 µM
# T9 construct: DNA tag (qPCR barcode); purchased Eurofins/DiscoverX KINOMEscan scanMAX
# Experimental: as §2
# [19] = target: T10, LCK (Homo sapiens, UniProt P06239); test: KINOMEscan; assay type: binding; settings: 1.0 µM
# T10 construct: purchased Eurofins/DiscoverX KINOMEscan scanMAX
# [20] = tested on: chemotherapy-resistant AML patient xenografts; design: method as in PMID 23596204; settings: mice; cited from earlier work
# [21] = read-out: A-419259 Sensitivity (IC50, nM) Initial, mean ± SE (n = 3)
# [22] = read-out: A-419259 Sensitivity (IC50, nM) Post-holiday, after 4 weeks passage in the absence of inhibitor, mean ± SE (n = 3)
# T1 sequence (P08631 78-526 T333L limits assumed): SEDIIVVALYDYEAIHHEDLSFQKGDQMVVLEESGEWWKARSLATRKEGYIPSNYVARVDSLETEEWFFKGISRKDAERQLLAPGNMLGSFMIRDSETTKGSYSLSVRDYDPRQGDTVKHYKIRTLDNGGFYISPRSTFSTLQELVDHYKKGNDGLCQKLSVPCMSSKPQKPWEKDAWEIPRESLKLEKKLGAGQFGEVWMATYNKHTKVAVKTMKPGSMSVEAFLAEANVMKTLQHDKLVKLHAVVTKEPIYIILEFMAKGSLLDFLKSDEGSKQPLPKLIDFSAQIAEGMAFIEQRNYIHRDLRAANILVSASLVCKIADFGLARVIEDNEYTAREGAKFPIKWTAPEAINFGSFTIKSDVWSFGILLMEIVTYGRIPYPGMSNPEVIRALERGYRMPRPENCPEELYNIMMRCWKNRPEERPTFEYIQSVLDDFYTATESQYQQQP
# T9 sequence (Q96J92 whole entry): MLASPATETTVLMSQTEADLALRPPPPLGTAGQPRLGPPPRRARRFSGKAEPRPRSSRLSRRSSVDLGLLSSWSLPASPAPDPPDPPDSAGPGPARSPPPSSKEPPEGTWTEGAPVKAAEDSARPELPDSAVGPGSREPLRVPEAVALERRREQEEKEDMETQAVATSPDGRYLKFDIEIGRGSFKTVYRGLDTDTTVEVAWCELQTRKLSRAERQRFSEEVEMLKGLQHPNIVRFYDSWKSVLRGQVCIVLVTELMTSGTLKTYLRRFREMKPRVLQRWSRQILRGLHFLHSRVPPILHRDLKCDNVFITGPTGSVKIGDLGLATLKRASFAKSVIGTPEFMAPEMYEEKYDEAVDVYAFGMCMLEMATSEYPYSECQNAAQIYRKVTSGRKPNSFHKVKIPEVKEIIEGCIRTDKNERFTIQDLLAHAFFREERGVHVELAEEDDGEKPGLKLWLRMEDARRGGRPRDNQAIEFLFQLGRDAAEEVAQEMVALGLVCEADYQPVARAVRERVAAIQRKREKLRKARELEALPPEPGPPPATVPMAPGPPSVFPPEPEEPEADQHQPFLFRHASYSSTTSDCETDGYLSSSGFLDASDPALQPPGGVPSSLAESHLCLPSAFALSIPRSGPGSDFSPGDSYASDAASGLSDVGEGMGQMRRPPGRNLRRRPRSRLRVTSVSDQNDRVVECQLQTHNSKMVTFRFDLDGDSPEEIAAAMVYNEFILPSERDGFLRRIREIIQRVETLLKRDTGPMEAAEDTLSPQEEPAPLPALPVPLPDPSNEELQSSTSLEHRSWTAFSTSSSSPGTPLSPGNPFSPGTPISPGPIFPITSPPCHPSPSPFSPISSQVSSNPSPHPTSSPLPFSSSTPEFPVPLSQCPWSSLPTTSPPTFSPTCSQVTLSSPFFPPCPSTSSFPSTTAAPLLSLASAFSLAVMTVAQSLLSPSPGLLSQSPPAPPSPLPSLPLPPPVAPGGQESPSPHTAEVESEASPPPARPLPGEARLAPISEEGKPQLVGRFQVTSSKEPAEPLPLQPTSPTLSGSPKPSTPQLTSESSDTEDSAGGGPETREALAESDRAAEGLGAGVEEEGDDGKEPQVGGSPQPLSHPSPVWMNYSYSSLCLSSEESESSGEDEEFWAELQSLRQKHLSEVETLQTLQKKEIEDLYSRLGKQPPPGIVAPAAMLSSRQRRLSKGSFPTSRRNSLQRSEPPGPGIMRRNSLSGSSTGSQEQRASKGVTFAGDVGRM
# T2 sequence (P07948 63-512 T319L limits assumed): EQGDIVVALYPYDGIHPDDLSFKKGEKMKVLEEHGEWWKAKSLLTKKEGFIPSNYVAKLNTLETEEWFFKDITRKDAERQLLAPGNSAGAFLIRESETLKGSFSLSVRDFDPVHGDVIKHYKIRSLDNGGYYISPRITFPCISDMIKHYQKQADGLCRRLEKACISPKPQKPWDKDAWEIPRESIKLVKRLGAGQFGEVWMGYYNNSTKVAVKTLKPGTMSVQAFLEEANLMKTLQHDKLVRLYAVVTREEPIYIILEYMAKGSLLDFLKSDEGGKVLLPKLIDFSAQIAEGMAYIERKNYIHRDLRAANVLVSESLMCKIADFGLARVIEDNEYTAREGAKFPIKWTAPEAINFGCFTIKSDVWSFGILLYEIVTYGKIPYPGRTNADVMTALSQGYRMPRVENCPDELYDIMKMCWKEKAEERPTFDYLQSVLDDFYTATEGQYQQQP
# T6 sequence (Q9Y2U5 whole entry): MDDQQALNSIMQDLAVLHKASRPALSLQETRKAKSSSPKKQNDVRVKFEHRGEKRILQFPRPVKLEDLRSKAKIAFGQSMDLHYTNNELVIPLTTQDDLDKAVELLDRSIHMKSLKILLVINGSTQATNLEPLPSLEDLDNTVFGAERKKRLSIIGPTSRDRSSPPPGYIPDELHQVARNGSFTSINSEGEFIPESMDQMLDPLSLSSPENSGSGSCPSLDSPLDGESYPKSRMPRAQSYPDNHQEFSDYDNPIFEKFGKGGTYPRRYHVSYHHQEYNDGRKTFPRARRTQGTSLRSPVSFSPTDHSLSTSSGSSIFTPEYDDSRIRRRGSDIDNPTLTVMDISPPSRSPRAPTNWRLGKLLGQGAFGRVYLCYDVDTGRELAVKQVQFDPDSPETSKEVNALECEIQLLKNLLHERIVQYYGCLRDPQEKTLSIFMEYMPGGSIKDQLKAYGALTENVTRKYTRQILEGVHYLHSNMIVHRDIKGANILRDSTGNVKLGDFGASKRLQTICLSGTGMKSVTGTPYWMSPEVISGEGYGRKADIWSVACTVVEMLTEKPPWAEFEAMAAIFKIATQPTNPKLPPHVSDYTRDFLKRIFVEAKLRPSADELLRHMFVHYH
# T7 sequence (Q9P286 whole entry): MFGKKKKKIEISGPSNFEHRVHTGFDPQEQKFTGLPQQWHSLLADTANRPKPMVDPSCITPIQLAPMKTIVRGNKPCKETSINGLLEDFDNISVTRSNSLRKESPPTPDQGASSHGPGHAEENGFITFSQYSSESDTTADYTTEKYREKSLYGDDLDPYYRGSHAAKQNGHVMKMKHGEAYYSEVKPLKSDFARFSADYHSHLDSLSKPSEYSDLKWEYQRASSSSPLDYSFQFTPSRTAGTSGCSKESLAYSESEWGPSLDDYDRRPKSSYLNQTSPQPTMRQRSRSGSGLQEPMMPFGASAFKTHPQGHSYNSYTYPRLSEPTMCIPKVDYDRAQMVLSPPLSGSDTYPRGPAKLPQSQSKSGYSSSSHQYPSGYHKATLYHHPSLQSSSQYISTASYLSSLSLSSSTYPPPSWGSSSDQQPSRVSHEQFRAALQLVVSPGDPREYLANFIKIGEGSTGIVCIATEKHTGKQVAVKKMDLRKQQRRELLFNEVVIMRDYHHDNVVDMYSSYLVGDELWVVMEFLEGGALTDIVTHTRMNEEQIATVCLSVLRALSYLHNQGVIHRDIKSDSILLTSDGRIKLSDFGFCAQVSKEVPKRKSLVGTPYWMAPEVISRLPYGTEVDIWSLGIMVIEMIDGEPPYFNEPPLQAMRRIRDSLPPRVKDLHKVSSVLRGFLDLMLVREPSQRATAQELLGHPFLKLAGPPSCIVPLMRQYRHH
# T10 sequence (P06239 whole entry): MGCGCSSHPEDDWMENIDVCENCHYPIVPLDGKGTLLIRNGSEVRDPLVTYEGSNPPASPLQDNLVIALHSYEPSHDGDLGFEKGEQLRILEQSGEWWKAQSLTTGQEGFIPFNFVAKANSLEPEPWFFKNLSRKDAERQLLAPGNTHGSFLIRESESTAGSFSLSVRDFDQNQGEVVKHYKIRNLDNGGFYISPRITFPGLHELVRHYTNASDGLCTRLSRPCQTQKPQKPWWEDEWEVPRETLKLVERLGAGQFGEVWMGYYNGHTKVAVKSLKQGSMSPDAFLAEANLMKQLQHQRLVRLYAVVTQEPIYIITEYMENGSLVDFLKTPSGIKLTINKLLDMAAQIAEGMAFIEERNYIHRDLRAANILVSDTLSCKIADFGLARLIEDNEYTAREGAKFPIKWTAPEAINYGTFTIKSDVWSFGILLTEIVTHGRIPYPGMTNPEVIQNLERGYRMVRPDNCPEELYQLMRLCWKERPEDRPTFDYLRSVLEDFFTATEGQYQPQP
# T3 sequence (P07948 63-512 T319F limits assumed): as the sequence (P07948 63-512 T319L limits assumed) above, with L257F counted along it
# T8 sequence (P57059 whole entry): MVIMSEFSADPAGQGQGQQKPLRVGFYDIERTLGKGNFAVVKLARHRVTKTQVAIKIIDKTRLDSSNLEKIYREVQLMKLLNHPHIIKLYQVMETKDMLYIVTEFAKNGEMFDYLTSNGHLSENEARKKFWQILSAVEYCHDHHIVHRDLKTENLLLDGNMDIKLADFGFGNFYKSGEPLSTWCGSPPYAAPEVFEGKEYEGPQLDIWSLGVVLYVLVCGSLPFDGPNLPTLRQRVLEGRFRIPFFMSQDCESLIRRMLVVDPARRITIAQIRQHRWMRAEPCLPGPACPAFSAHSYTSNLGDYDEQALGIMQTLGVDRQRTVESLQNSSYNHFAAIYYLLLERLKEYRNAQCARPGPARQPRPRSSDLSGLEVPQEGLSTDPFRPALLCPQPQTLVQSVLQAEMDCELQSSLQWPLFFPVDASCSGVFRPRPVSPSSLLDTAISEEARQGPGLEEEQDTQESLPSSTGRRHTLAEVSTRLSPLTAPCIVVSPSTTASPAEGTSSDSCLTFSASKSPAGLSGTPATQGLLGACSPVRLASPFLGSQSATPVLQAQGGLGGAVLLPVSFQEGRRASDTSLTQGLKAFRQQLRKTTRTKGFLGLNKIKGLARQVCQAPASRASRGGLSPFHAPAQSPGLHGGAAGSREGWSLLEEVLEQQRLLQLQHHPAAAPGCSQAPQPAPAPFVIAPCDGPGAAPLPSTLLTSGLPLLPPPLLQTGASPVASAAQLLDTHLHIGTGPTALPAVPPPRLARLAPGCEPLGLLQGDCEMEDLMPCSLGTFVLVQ
compound,measurement,setting,value
CN1CCN(C2CCC(n3cc(-c4ccc(Oc5ccccc5)cc4)c4c(N)ncnc43)CC2)CC1 (stereo not drawn) [A-419259],effect of substitution on kinase sensitivity to A-419259,"[1]; Hck gatekeeper threonine to leucine, vs wild-type",without an effect
same,IC50,"[1]; read-out: A-419259 IC50, Fig 5B, Hck T338L, ATP at Km, mean ± SE, three independent determinations",0.041 ± 0.001 µM
same,IC50,[2],0.1297 ± 0.0011 µM
same,IC50,[3],0.242 ± 0.0012 µM
same,resistance to A-419259 in in vitro kinase assays,[4],about 6 fold
same,growth inhibition,[5],less than 20%
same,IC50,[6],22.6 nM
same,IC50,[7]; [21],473 ± 53.9 nM
same,IC50,[7]; [22],436 ± 107 nM
same,IC50,[8]; [21],187 ± 20.8 nM
same,IC50,[8]; [22],283 ± 84.2 nM
same,IC50,[9]; [21],193 ± 51.4 nM
same,IC50,[9]; [22],326 ± 38.4 nM
same,IC50,[10]; [21],213 ± 73.7 nM
same,IC50,[10]; [22],178 ± 46.1 nM
same,IC50,[11]; [21],410 ± 136 nM
same,IC50,[11]; [22],597 ± 76.3 nM
same,IC50,[12]; [21],125 ± 7.3 nM
same,IC50,[12]; [22],91.6 ± 15.6 nM
same,kinase interactions,[13],19
same,% Control,[14],0.65%
same,% Control,[15],1.7%
same,% Control,[16],89%
same,% Control,[17],2.1%
same,% Control,[18],39%
same,% Control,[19],2.3%
same,effect on chemotherapy-resistant AML patient xenografts,[20],completely eliminates
